These results are taken from publication PMC10740425, “How Deep Learning in Antiviral Molecular Profiling Identified Anti-SARS-CoV-2 Inhibitors” (Biomedicines, 2023).

Data set [1] is described as follows: Mouse infection model, body weight changes. The format is in vivo, BALB/C mice. As to conditions: infected mice, 5 mg/kg intranasally, four-day observation.
The next data set concerns Calu-3 cells. As to conditions: uninfected Calu-3 cells, concentrations up to 10 µM, normalized to DMSO.
The subject of data set [2] is SARS-CoV-2. The format is cell-based. The settings on record: Calu-3 cells, treated 1 h post-infection, up to 10 µM, 72 h.
Data set [3] has as its system SARS-CoV-2. The settings on record: Calu-3 cells, 5 µM, pre-treated 2 h, MOI 0.1, 72 h.

Each structure is given as a SMILES string.

Turning to `Cn1cnc([N+](=O)[O-])c1Sc1ncnc2nc[nH]c12` [azathioprine], in data set [1], the “weight changes versus control group” value is listed as “no significant difference in weight changes”. In addition, the cellular toxicity entry in the data set with Calu-3 cells is listed as “low cellular toxicity”. In addition, the “viral progeny / inhibitory effect (plaque assay, Western blotting)” value (from here on “viral progeny / inhibitory effect”) in the data set with SARS-CoV-2 [2] was “significant reduction in viral progeny”. For the same molecule, the “antiviral activity (intracellular virus, immunofluorescence staining)” value with SARS-CoV-2 [3] is “antiviral activity comparable to established nucleoside analog inhibitors”.
For the molecule `CC(C)C(=O)OC[C@H]1O[C@@H](n2ccc(NO)nc2=O)[C@H](O)[C@@H]1O` [molnupiravir], the “viral progeny / inhibitory effect” value with SARS-CoV-2 [2] is recorded as “moderate inhibitory effects”.
As to `O=P(O)(O)OC[C@H]1O[C@@H](n2cnc3c(S)ncnc32)[C@H](O)[C@@H]1O` [thioinosinic acid], the “weight changes versus control group” value in data set [1] is listed as “no significant difference in weight changes”. Moreover, the “viral progeny / inhibitory effect” value with SARS-CoV-2 [2] is “notable antiviral efficacy”.
